System: honeyeater HK3 (hexokinase 3)
Test: hexokinase activity assay kit
Format: biochemical, Phylidonyris novaehollandiae
Settings: 25 °C; 200 nM enzyme; glucose 0.009375-1 mM; substrate inhibition

- Km: 65.9 µM
SMILES: OC[C@H]1OC(O)[C@H](O)[C@@H](O)[C@@H]1O (stereo partly shown) [glucose]

— doi:10.1101/2024.08.30.610474v2 (biorxiv, 2025)
